ChEMBL document CHEMBL1137579, “Discovery of 1-[2-[(1S)-(3-dimethylaminopropionyl)amino-2-methylpropyl]-4-methylphenyl]-4-[(2R)-methyl-3-(4-chlorophenyl)-propionyl]piperazine as an orally active antagonist of the melanocortin-4 receptor for the potential treatment of cachexia” (J Med Chem, 2007)
Values after ≈ are worked out from the molar mass of the structure shown. Values belong to the molecule of their own block, whether it stands above or below them. Active and inactive are the calls of the source. The rule behind the calls is not given here.

Tests used:
[1] = molecular target: Melanocortin receptor 4 (Homo sapiens) (UniProt P32245); experiment: Activity at MC4R expressed in HEK293 cells assessed as stimulation of cAMP release at 10 uM relative to alpha-MSH; assay type: functional, cell-based
Melanocortin receptor 4 (Homo sapiens), sequence (P32245 whole entry): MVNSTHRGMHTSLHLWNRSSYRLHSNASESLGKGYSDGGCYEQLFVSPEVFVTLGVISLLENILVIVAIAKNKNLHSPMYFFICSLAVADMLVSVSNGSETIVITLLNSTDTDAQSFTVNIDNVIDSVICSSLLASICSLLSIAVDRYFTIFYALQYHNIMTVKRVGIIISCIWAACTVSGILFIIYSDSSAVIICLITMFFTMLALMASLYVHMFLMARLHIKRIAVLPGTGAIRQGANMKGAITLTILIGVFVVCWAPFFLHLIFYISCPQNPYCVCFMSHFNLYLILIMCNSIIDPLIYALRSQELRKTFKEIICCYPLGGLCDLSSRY

[2] = system: Caco-2; experiment: Permeability across Caco-2 cell membrane; assay type: ADME, cell-based; conditions: human
[3] = molecular target: Cytochrome P450 3A4 (Homo sapiens, UniProt P08684); experiment: Inhibition of CYP3A4; assay type: ADME
Cytochrome P450 3A4, sequence (P08684 whole entry): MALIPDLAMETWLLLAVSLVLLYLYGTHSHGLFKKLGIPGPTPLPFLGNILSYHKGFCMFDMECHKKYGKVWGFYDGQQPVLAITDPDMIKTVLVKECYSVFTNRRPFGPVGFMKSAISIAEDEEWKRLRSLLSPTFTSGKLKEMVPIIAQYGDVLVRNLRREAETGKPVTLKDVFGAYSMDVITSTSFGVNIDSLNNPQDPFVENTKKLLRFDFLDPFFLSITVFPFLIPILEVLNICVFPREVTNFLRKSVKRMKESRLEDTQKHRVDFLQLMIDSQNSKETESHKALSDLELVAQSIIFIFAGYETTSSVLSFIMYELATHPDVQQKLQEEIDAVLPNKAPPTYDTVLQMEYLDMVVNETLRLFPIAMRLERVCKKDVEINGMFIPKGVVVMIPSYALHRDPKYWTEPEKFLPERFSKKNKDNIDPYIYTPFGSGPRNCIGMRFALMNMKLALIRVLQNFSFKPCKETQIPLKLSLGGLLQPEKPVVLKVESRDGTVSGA

[4] = Tmax in rat at 2.5 mg/kg, iv or 10 mg/kg, po; assay type: ADME, organism-based; conditions: in vivo
[5] = Ratio of drug level in brain to plasma in rat at 2.5 mg/kg, iv or 10 mg/kg, po after 1 hr; assay type: ADME, organism-based
[6] = Drug level in rat brain at 10 mg/kg, po after 4 hrs; assay type: ADME, organism-based; set-up: dose 10 mg/kg, route oral; conditions: read-out: Drug uptake
[7] = AUC in rat at 10 mg/kg, po; assay type: ADME, organism-based; set-up: dose 10 mg/kg, route oral; conditions: plasma
[8] = Ratio of drug level in brain to plasma in rat at 2.5 mg/kg, iv or 10 mg/kg, po after 4 hrs; assay type: ADME, organism-based
[9] = Volume of distribution in rat at 2.5 mg/kg, iv or 10 mg/kg, po; assay type: ADME, organism-based; conditions: in vivo
[10] = Drug level in rat brain at 10 mg/kg, po after 1 hr; assay type: ADME, organism-based; set-up: dose 10 mg/kg, route oral; conditions: read-out: Drug uptake
[11] = Cmax in rat at 2.5 mg/kg, iv or 10 mg/kg, po; assay type: ADME, organism-based; conditions: in vivo
[12] = Oral bioavailability in rat at 10 mg/kg, po; assay type: ADME, organism-based; conditions: in vivo
[13] = molecular target: Melanocyte-stimulating hormone receptor (Homo sapiens) (UniProt Q01726); experiment: Displacement of [125I]NDP-MSH from human MC1R
Melanocyte-stimulating hormone receptor (Homo sapiens), sequence (Q01726 whole entry, looked up): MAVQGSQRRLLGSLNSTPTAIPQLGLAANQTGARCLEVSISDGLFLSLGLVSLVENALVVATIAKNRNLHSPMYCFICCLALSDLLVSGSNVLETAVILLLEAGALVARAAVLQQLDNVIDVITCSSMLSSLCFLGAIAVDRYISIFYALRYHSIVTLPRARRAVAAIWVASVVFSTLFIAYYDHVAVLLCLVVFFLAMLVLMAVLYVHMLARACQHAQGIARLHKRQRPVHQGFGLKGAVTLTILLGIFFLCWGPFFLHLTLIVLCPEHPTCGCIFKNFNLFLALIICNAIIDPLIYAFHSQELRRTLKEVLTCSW

[14] = system: Mus musculus; experiment: AUC in CD1 mouse brain at 10 mg/kg, po; assay type: ADME, organism-based; set-up: dose 10 mg/kg, route oral; conditions: in vivo
[15] = system: Mus musculus; experiment: Increase in food intake in C57BL/6J mouse at 5 mg/kg on day 10; assay type: functional, organism-based; set-up: dose 5 mg/kg
[16] = AUC in CD1 Beagle dog at 10 mg/kg, po; assay type: ADME, organism-based, Canis lupus familiaris; set-up: dose 10 mg/kg, route oral; conditions: plasma
[17] = AUC in Beagle dog at 5 mg/kg, iv; assay type: ADME, organism-based, Canis lupus familiaris; set-up: dose 5 mg/kg, route intravenous; conditions: plasma
[18] = Aqueous solubility at pH 7.0; assay type: physicochemical; conditions: aqueous medium
[19] = Cmax in CD1 mouse brain at 10 mg/kg, po; assay type: ADME, organism-based; set-up: dose 10 mg/kg, route oral
[20] = Tmax in CD1 mouse at 10 mg/kg, po; assay type: ADME, organism-based; set-up: dose 10 mg/kg, route oral; conditions: in vivo, read-out: Tm
[21] = Ratio of drug level in brain to plasma in CD1 mouse at 10 mg/kg, po; assay type: ADME, organism-based; set-up: dose 10 mg/kg, route oral
[22] = system: Rattus norvegicus; experiment: AUC in Sprague-Dawley rat brain at 10 mg/kg, po; assay type: ADME, organism-based; set-up: dose 10 mg/kg, route oral; conditions: in vivo
[23] = Aqueous solubility at pH 3.0; assay type: physicochemical; conditions: aqueous medium
[24] = Cmax in rat at 5 mg/kg, iv or 10 mg/kg, po; assay type: ADME, organism-based; conditions: in vivo
[25] = AUC in rhesus monkey at 5 mg/kg, iv; assay type: ADME, organism-based, Macaca mulatta; set-up: dose 5 mg/kg, route intravenous; conditions: plasma
[26] = Volume of distribution in CD1 mouse at 2.5 mg/kg, iv; assay type: ADME, organism-based; set-up: dose 2.5 mg/kg, route intravenous; conditions: in vivo
[27] = Ratio of drug level in brain to plasma in rat at 5 mg/kg, iv or 10 mg/kg, po after 4 hrs; assay type: ADME, organism-based
[28] = Cmax in Beagle dog at 10 mg/kg, po; assay type: ADME, organism-based, Canis lupus familiaris; set-up: dose 10 mg/kg, route oral; conditions: in vivo
[29] = Oral bioavailability in rhesus monkey at 10 mg/kg, po; assay type: ADME, organism-based, Macaca mulatta; conditions: in vivo
[30] = system: Mus musculus; experiment: Increase in food intake in C57BL/6J mouse at 20 mg/kg on day 12; assay type: functional, organism-based; set-up: dose 20 mg/kg
[31] = AUC in CD1 mouse at 10 mg/kg, po; assay type: ADME, organism-based; set-up: dose 10 mg/kg, route oral; conditions: plasma
[32] = Cmax in CD1 mouse at 10 mg/kg, po; assay type: ADME, organism-based; set-up: dose 10 mg/kg, route oral; conditions: in vivo
[33] = system: Mus musculus; experiment: Increase in food intake in C57BL/6J mouse at 20 mg/kg on day 10; assay type: functional, organism-based; set-up: dose 20 mg/kg
[34] = Volume of distribution in Beagle dog at 5 mg/kg, iv; assay type: ADME, organism-based, Canis lupus familiaris; set-up: dose 5 mg/kg, route intravenous; conditions: in vivo
[35] = Tmax in Beagle dog at 10 mg/kg, po; assay type: ADME, organism-based, Canis lupus familiaris; set-up: dose 10 mg/kg, route oral; conditions: in vivo, read-out: Tm
[36] = system: Mus musculus; experiment: Increase in food intake in C57BL/6J mouse at 5 mg/kg on day 11; assay type: functional, organism-based; set-up: dose 5 mg/kg
[37] = AUC in […] rhesus monkey at 10 mg/kg, po; assay type: ADME, organism-based, Macaca mulatta; set-up: dose 10 mg/kg, route oral; conditions: plasma
[38] = Cmax in rhesus monkey at 10 mg/kg, po; assay type: ADME, organism-based, Macaca mulatta; set-up: dose 10 mg/kg, route oral; conditions: in vivo
[39] = system: Mus musculus; experiment: Increase in food intake in C57BL/6J mouse at 5 mg/kg on day 12; assay type: functional, organism-based; set-up: dose 5 mg/kg
[40] = Oral bioavailability in Beagle dog at 10 mg/kg, po; assay type: ADME, organism-based, Canis lupus familiaris; conditions: in vivo
[41] = Tmax in CD1 mouse brain at 10 mg/kg, po; assay type: ADME, organism-based; set-up: dose 10 mg/kg, route oral
[42] = AUC in Sprague-Dawley rat at 10 mg/kg, po; assay type: ADME, organism-based; set-up: dose 10 mg/kg, route oral; conditions: plasma
[43] = Tmax in Sprague-Dawley rat at 10 mg/kg, po; assay type: ADME, organism-based; set-up: dose 10 mg/kg, route oral; conditions: in vivo, read-out: Tm
[44] = Tmax in rat at 5 mg/kg, iv or 10 mg/kg, po; assay type: ADME, organism-based; conditions: in vivo
[45] = AUC in CD1 mouse at 2.5 mg/kg, iv; assay type: ADME, organism-based; set-up: dose 2.5 mg/kg, route intravenous; conditions: plasma
[46] = Cmax in Sprague-Dawley rat brain at 10 mg/kg, po; assay type: ADME, organism-based; set-up: dose 10 mg/kg, route oral
[47] = Volume of distribution in rat at 5 mg/kg, iv or 10 mg/kg, po; assay type: ADME, organism-based; conditions: in vivo
[48] = Cmax in Sprague-Dawley rat at 10 mg/kg, po; assay type: ADME, organism-based; set-up: dose 10 mg/kg, route oral; conditions: in vivo
[49] = system: Mus musculus; experiment: Increase in food intake in C57BL/6J mouse at 20 mg/kg on day 11; assay type: functional, organism-based; set-up: dose 20 mg/kg
[50] = Dissociation constant, pKa of the compound; assay type: physicochemical
[51] = Tmax in Sprague-Dawley rat brain at 10 mg/kg, po; assay type: ADME, organism-based; set-up: dose 10 mg/kg, route oral
[52] = Oral bioavailability in CD1 mouse at 10 mg/kg, po; assay type: ADME, organism-based; conditions: in vivo
[53] = Volume of distribution in rhesus monkey at 5 mg/kg, iv; assay type: ADME, organism-based, Macaca mulatta; set-up: dose 5 mg/kg, route intravenous; conditions: in vivo
[54] = Ratio of drug level in brain to plasma in rat at 5 mg/kg, iv or 10 mg/kg, po after 1 hr; assay type: ADME, organism-based
[55] = Tmax in rhesus monkey at 10 mg/kg, po; assay type: ADME, organism-based, Macaca mulatta; set-up: dose 10 mg/kg, route oral; conditions: in vivo, read-out: Tm
[56] = Plasma clearance in rat at 5 mg/kg, iv
[57] = Half life in rat at 2.5 mg/kg, iv or 10 mg/kg, po; assay type: ADME, organism-based; conditions: in vivo

Compound: CNCC(=O)N[C@H](c1cc(C)ccc1N1CCN(C(=O)[C@H](C)Cc2ccc(Cl)cc2F)CC1)C(C)C
permeability [2]: 0.8 10^-6 cm/s
IC50 [3]: 6.9 µM
Activity [1]: 12%

Compound: CNCCC(=O)N[C@H](c1cc(C)ccc1N1CCN(C(=O)[C@H](C)Cc2ccc(Cl)cc2)CC1)C(C)C
Tmax [4]: 3.3 h
concentration at 4 h [6]: < 5 ng/g
AUC [7]: 563 ng·h/mL
permeability [2]: 1.2 10^-6 cm/s
Vd [9]: 20 L/kg
Activity [13]: 43%
concentration at 1 h [10]: < 5 ng/g
Cmax [11]: 57 ng/mL
bioavailability [12]: 15%

Compound: Cc1ccc(N2CCN(C(=O)[C@H](C)Cc3ccc(Cl)cc3)CC2)c([C@@H](NC(=O)CCN(C)C)C(C)C)c1
AUC [14]: 367 ng·h/g
Activity [15]: Active
AUC [16]: 2860 ng·h/mL
AUC [17]: 8200 ng·h/mL
solubility [18]: 33 mg/mL (≈ 62.6 mM)
Cmax [19]: 91 ng/g
Tmax [20]: 0.5 h
concentration at 4 h [6]: 33 ng/g
Kp [21]: 0.15
AUC [7]: 1400 ng·h/mL
AUC [22]: 254 ng·h/g
solubility [23]: > 71 mg/mL
Cmax [24]: 110 ng/mL
AUC [25]: 10300 ng·h/mL
Vd [26]: 4.1 L/kg
Kp at 4 h [27]: 0.4
permeability [2]: 6.2 10^-6 cm/s
Cmax [28]: 262 ng/mL
bioavailability [29]: 19%
Activity [30]: Active
AUC [31]: 2530 ng·h/mL
Activity [13]: 50%
Cmax [32]: 946 ng/mL
Activity [33]: Active
Vd [34]: 5.9 L/kg
Tmax [35]: 1.7 h
Activity [36]: Active
AUC [37]: 3860 ng·h/mL
Cmax [38]: 761 ng/mL
Activity [39]: Active
bioavailability [40]: 19%
Tmax [41]: 0.3 h
AUC [42]: 1520 ng·h/mL
Tmax [43]: 2.7 h
Tmax [44]: 4.7 h
AUC [45]: 1410 ng·h/mL
Cmax [46]: 41 ng/g
Vd [47]: 13 L/kg
Cmax [48]: 279 ng/mL
concentration at 1 h [10]: 20 ng/g
Activity [49]: Active
pKa [50]: 7.8
bioavailability [12]: 43%
Tmax [51]: 6 h
bioavailability [52]: 32%
Vd [53]: 2 L/kg
Kp at 1 h [54]: 0.2
Tmax [55]: 1.8 h

Compound: Cc1ccc(N2CCN(C(=O)[C@H](C)Cc3ccc(Cl)cc3F)CC2)c([C@@H](N)C(C)C)c1
Activity [1]: 5%

Compound: Cc1ccc(N2CCN(C(=O)[C@H](C)Cc3ccc(Cl)cc3F)CC2)c([C@@H](NC(=O)CCN(C)C)C(C)C)c1
Tmax [4]: 4.7 h
concentration at 4 h [6]: 31 ng/g
AUC [7]: 1470 ng·h/mL
Vd [9]: 4.2 L/kg
concentration at 1 h [10]: 8 ng/g
Cmax [11]: 134 ng/mL
bioavailability [12]: 13%

Compound: Cc1ccc(N2CCN(C(=O)[C@H](C)Cc3ccc(Cl)cc3)CC2)c([C@@H](N)C(C)C)c1
permeability [2]: 5 10^-6 cm/s

Compound: CNCCN[C@H](c1cc(C)ccc1N1CCN(C(=O)[C@H](C)Cc2ccc(Cl)cc2F)CC1)C(C)C
Tmax [4]: 6 h
concentration at 4 h [6]: < 5 ng/g
AUC [7]: 299 ng·h/mL
clearance [56]: 60 mL/min/kg
permeability [2]: 0.3 10^-6 cm/s
Vd [9]: 95 L/kg
half-life [57]: 17 h
Activity [1]: 7%
concentration at 1 h [10]: < 5 ng/g
Cmax [11]: 22 ng/mL
bioavailability [12]: 13%

Second part, the molecule after the results:

Activity [1]: 2%
Compound: Cc1ccc(N2CCN(C(=O)[C@H](C)Cc3ccc(Cl)cc3C)CC2)c([C@@H](N)C(C)C)c1

Tmax [4]: 4 h
Kp at 1 h [5]: 0.1
concentration at 4 h [6]: 42 ng/g
AUC [7]: 1950 ng·h/mL
Kp at 4 h [8]: 0.3
permeability [2]: 1.9 10^-6 cm/s
Vd [9]: 4.3 L/kg
concentration at 1 h [10]: 9 ng/g
Cmax [11]: 208 ng/mL
bioavailability [12]: 5.6%
Compound: Cc1ccc(N2CCN(C(=O)[C@H](C)Cc3ccc(Cl)cc3C)CC2)c([C@@H](NC(=O)CCN(C)C)C(C)C)c1

permeability [2]: 0.3 10^-6 cm/s
Activity [13]: 42%
Compound: Cc1ccc(N2CCN(C(=O)[C@H](C)Cc3ccc(Cl)cc3)CC2)c([C@@H](NC(=O)CCN)C(C)C)c1
